This assay has as its target T1, GPR119 (UniProt Q8TDV5, S309L, species not given).
T1 sequence (Q8TDV5 1-335 S309L): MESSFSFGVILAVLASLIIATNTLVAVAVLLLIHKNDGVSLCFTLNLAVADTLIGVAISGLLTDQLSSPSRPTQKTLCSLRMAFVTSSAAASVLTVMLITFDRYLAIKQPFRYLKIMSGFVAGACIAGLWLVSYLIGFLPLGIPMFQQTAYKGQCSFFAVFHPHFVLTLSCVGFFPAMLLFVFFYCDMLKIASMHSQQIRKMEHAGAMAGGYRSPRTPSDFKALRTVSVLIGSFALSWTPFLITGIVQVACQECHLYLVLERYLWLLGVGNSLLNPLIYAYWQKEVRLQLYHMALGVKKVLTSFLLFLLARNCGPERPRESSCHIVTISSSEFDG
As to the kind of experiment: GPR119 signaling, cyclic AMP (cAMP) HTRF assay. The format is cell-based, human (S309L variant) or murine. As to conditions: CHO cells with Gα15 and murine GPR119 or HEK293 Flp-In cells with human GPR119 S309L, read-out: EC50 (agonist activation of GPR119, cAMP). The text has this: The title compound was synthesized using 2-{2-[1-(5-chloropyrimidin-2-yl)piperidin-4-yl]cyclopropyl}ethyl 4-methylbenzenesulfonate from step 1 of this example by a general procedure analogous that described in Example 59. LRMS calc: 424.9; obs: 425.01 (M+1). Measurement of GPR119Signaling Using a Cyclic AMP (cAMP) Homogenous Time Resolved Fluorescence (HTRF) Assay
Chinese hamster ovary (CHO) cell lines stably transfected with the permissive guanine nucleotide binding protein alpha 15 (Gα15) and murine GPR119 were maintained in DMEM media containing FBS, penicillin-streptomycin, puromycin, and G418 (geneticin). Alternatively, human embryonic kidney (HEK)293 Flp-In cells (Invitrogen, Carlsbad, Calif.) were stably transfected with a human SNP variant (S309L) of GPR119 and maintained in DMEM media containing FBS, penicillin-streptomycin, and hygromycin. Agonist activation of the GPR119 receptor was measured in receptor transfected cells described above, treated with compounds of this invention, using a commercial homogenous time resolved fluorescence (HTRF) kit for measurement of cAMP (CisBio, Bedford, Mass.). The assay was performed in 96-well half-volume plates (murine) or 384-well plates (human) following the manufacturers instructions. Briefly, suspended cells were incubated with a dose titration of test compound at room temperature for 60 min, lysed, and incubated with HTRF reagents for an additional 60 min. The plate was read using an Envision multilabel reader (Perkin Elmer) adjusted to read time resolved fluorescence and the cAMP concentrations were extrapolated from a cAMP calibration curve. […] The concentration of test compound required to stimulate a half-maximal response (EC50), and efficacy as compared to an internal agonist control, was determined from a sigmoidal 4-parameter curve fit of the resulting plot of normalized activity versus compound concentration.
Consider `CS(=O)(=O)c1ccc(NCC[C@@H]2C[C@H]2C2CCN(c3ncc(Cl)cn3)CC2)cc1` (single isomer, unassigned) [Ex 58, trans-N-(2-{2-[1-(5-chloropyrimidin-2-yl)piperidin-4-yl]cyclopropyl}ethyl)-4-(methylsulfonyl)aniline], for which the EC50 (usually the concentration needed to bring the measured effect to its halfway point) lay within 50 to 200 nM.
In the case of `O=C1Cc2cc(NCC[C@@H]3C[C@@H]3C3CCN(c4ncc(Cl)cn4)CC3)cc(F)c2N1` [Ex 53, 5-[(2-{(1S,2S)-2-[1-(5-chloropyrimidin-2-yl)piperidin-4-yl]cyclopropyl}ethyl)amino]-7-fluoro-1,3-dihydro-2H-indol-2-one] it was under 10 nM; in that of `CC(C)(C)C(=O)Nc1ccc(NCC[C@@H]2C[C@@H]2C2CCN(c3ncc(Cl)cn3)CC2)cn1` [Ex 56, N-{5-[(2-{(1S,2S)-2-[1-(5-chloropyrimidin-2-yl)piperidin-4-yl]cyclopropyl}ethyl)amino]pyridin-2-yl}-2,2-dimethyl propanamide], under 10 nM; in that of `CC(C)(C)C(=O)Nc1ncc(NCC[C@@H]2C[C@@H]2C2CCN(c3ncc(Cl)cn3)CC2)cc1Cl` [Ex 32, N-{3-chloro-5-[(2-{(1S,2S)-2-[1-(5-chloropyrimidin-2-yl)piperidin-4-yl]cyclopropyl}ethyl)amino]pyridin-2-yl}-2,2-dimethyl propanamide], under 10 nM.
Take `CS(=O)(=O)c1ccc(NCC[C@@H]2C[C@@H]2C2CCN(c3ncc(Cl)cn3)CC2)nc1` [Ex 6, N-(2-{(1S,2S)-2-[1-(5-chloropyrimidin-2-yl)piperidin-4-yl]cyclopropyl}ethyl)-5-(methylsulfonyl)pyridin-2-amine]: the EC50 lay within 10 to 50 nM.
In the case of `Clc1cnc(N2CCC([C@H]3C[C@H]3CCNc3cnc(-n4cnnn4)nc3)CC2)nc1` [Ex 26, N-(2-{(1S,2S)-2-[1-(5-chloropyrimidin-2-yl)piperidin-4-yl]cyclopropyl}ethyl)-2-(1H-tetrazol-1-yl)pyrimidin-5-amine] it was 10 to 50 nM; in that of `Clc1cnc(N2CCC([C@H]3C[C@H]3CCNc3ccc(-n4cncn4)cc3)CC2)nc1` [Ex 11, N-(2-{(1S,2S)-2-[1-(5-chloropyrimidin-2-yl)piperidin-4-yl]cyclopropyl}ethyl)-4-(1H-1,2,4-triazol-1-yl)aniline], under 10 nM.
To `Clc1cnc(N2CCC([C@H]3C[C@H]3CCNc3ccc(-c4ccn[nH]4)cc3)CC2)nc1` [Ex 12, N-(2-{(1S,2S)-2-[1-(5-chloropyrimidin-2-yl)piperidin-4-yl]cyclopropyl}ethyl)-4-(1H-pyrazol-5-yl)aniline] belongs under 10 nM.
As to `O=C1c2ccc(NCC[C@@H]3C[C@@H]3C3CCN(c4ncc(Cl)cn4)CC3)cc2CN1C1CC1` [Ex 46, 5-[(2-{(1S,2S)-2-[1-(5-chloropyrimidin-2-yl)piperidin-4-yl]cyclopropyl}ethyl)amino]-2-cyclopropylisoindolin-1-one], the EC50 is under 10 nM.
In the case of `O=C1COC(=O)N1c1ccc(NCC[C@@H]2C[C@@H]2C2CCN(c3ncc(Cl)cn3)CC2)cn1` [Ex 27] it was 10 to 50 nM; in that of `Cc1cc(C#N)nc(NCC[C@@H]2C[C@@H]2C2CCN(c3ncc(Cl)cn3)CC2)c1` [Ex 41, 6-[(2-{(1S,2S)-2-[1-(5-chloropyrimidin-2-yl)piperidin-4-yl]cyclopropyl}ethyl)amino]-4-methylpyridine-2-carbonitrile], 10 to 50 nM.
To `Cc1cc(-n2cnnn2)cnc1NCC[C@@H]1C[C@@H]1C1CCN(c2ncc(Cl)cn2)CC1` [Ex 36, N-(2-{(1S,2S)-2-[1-(5-chloropyrimidin-2-yl)piperidin-4-yl]cyclopropyl}ethyl)-3-methyl-5-(1H-tetrazol-1-yl)pyridin-2-amine] belongs under 10 nM; to `Clc1cnc(N2CCC(C3CC3CCNc3ccc(-n4cncn4)nc3)CC2)nc1` (single isomer, unassigned) [Ex 59, trans-N-(2-{2-[1-(5-chloropyrimidin-2-yl)piperidin-4-yl]cyclopropyl}ethyl)-6-1H-1,2,4-triazol-1-yl)pyridin-3-amine], 10 to 50 nM; to `Cn1cc2cc(NCC[C@@H]3C[C@@H]3C3CCN(c4ncc(Cl)cn4)CC3)ccc2n1` [Ex 49, N-(2-{(1S,2S)-2-[1-(5-chloropyrimidin-2-yl)piperidin-4-yl]cyclopropyl}ethyl)-2-methyl-2H-indazol-5-amine], 10 to 50 nM.
In the case of `CS(=O)(=O)c1ccc(NCC[C@@H]2C[C@@H]2C2CCN(c3ncc(Cl)cn3)CC2)cc1` [Ex 7, N-(2-{(1S,2S)-2-[1-(5-chloropyrimidin-2-yl)piperidin-4-yl]cyclopropyl}ethyl)-4-(methylsulfonyl)aniline] it was under 10 nM; in that of `Cn1ncc2cc(NCC[C@@H]3C[C@@H]3C3CCN(c4ncc(Cl)cn4)CC3)ccc21` [Ex 48, N-(2-{(1S,2S)-2-[1-(5-chloropyrimidin-2-yl)piperidin-4-yl]cyclopropyl}ethyl)-1-methyl-1H-indazol-5-amine], 10 to 50 nM.
With `Clc1cnc(N2CCC([C@H]3C[C@H]3CCNc3ccc4[nH]ncc4c3)CC2)nc1` [Ex 42, N-(2-{(1S,2S)-2-[1-(5-chloropyrimidin-2-yl)piperidin-4-yl]cyclopropyl}ethyl)-1H-indazol-5-amine], the EC50 is under 10 nM.
To `Cc1cc(NC(=O)C(C)(C)C)cnc1NCC[C@@H]1C[C@@H]1C1CCN(c2ncc(Cl)cn2)CC1` [Ex 28, N-{6-[(2-{(1S,2S)-2-[1-(5-chloropyrimidin-2-yl)piperidin-4-yl]cyclopropyl}ethyl)amino]-5-methylpyridin-3-yl}-2,2-dimethylpropanamide] belongs under 10 nM; to `CC(=O)Nc1ccc(NCC[C@@H]2C[C@@H]2C2CCN(c3ncc(Cl)cn3)CC2)cc1` [Ex 52, N-{4-[(2-{(1S,2S)-2-[1-(5-chloropyrimidin-2-yl)piperidin-4-yl]cyclopropyl}ethyl)amino]phenyl}acetamide], 10 to 50 nM.
In the case of `CN1C(=O)Cc2cc(NCC[C@@H]3C[C@@H]3C3CCN(c4ncc(Cl)cn4)CC3)ccc21` [Ex 51, 5-[(2-{(1S,2S)-2-[1-(5-chloropyrimidin-2-yl)piperidin-4-yl]cyclopropyl}ethyl)amino]-1-methyl-1,3-dihydro-2H-indol-2-one] it was under 10 nM; in that of `Clc1cnc(N2CCC([C@H]3C[C@H]3CCNc3ccc(-n4nccn4)nc3)CC2)nc1` [Ex 19, N-(2-{(1S,2S)-2-[1-(5-chloropyrimidin-2-yl)piperidin-4-yl]cyclopropyl}ethyl)-6-(2H-1,2,3-triazol-2-yl)pyridin-3-amine], 10 to 50 nM.
As to `CC(C)(C)C(=O)Nc1ccc(NCC[C@@H]2C[C@@H]2C2CCN(c3ncc(Cl)cn3)CC2)nc1` [Ex 30, N-{6-[(2-{(1S,2S)-2-[1-(5-chloropyrimidin-2-yl)piperidin-4-yl]cyclopropyl}ethyl)amino]pyridin-3-yl}-2,2-dimethyl propanamide], the EC50 was under 10 nM.
To `CN(CC[C@@H]1C[C@@H]1C1CCN(c2ncc(Cl)cn2)CC1)c1ccc(S(C)(=O)=O)cc1` [Ex 9, N-(2-{(1S,2S)-2-[1-(5-chloropyrimidin-2-yl)piperidin-4-yl]cyclopropyl}ethyl)-N-methyl-4-(methylsulfonyl)aniline] belongs 50 to 200 nM; to `CC1(C(=O)Nc2ccc(NCC[C@@H]3C[C@@H]3C3CCN(c4ncc(Cl)cn4)CC3)cn2)CC1` [Ex 38, N-{5-[(2-{(1S,2S)-2-[1-(5-chloropyrimidin-2-yl)piperidin-4-yl]cyclopropyl}ethyl)amino]pyridin-2-yl}-1-methylcyclopropane carboxamide], under 10 nM.
For `Cc1nc(C#N)cc(NCC[C@H]2C[C@@H]2C2CCN(c3ncc(Cl)cn3)CC2)n1` (relative stereo) [Ex 61, trans 6-[(2-{2-[1-(5-chloropyrimidin-2-yl)piperidin-4-yl]cyclopropyl}ethyl)amino]-2-methylpyrimidine-4-carbonitrile], the half-maximal effective concentration (EC50) was under 10 nM.
For the molecule `Cc1nnn(-c2ccc(NCC[C@@H]3C[C@@H]3C3CCN(c4ncc(Cl)cn4)CC3)cn2)n1` [Ex 17, N-(2-{(1S,2S)-2-[1-(5-chloropyrimidin-2-yl)piperidin-4-yl]cyclopropyl}ethyl)-6-(5-methyl-2H-tetrazol-2-yl)pyridin-3-amine], the EC50 was under 10 nM.

(Values after patent US8552022B2, “Substituted cyclopropyl compounds, compositions containing such compounds and methods of treatment” (Merck Sharp & Dohme Corp., priority 2009, dated 2013).)
